Test results reported in PubChem BioAssay AID330 (DTP/NCI, 2004).
Values joined by “and” are separate entries in the source; they are usually repeats but may differ in a detail not shown here. Identical values can stand only once. Toxic doses and inconclusive results are not listed.

Test system: P388 leukemia ip, CD2F1 mice, survival T/C
Test: NCI In Vivo Anticancer Drug Screen. Data for tumor model P388 Leukemia (intraperitoneal) in CD2F1 (CDF1) mice
Details: endpoint: median survival time, higher = longer survival
Outline: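 Mice carrying the transplanted tumor received test compound or vehicle. Survival was recorded in each group, and the value is the treated-group measurement divided by that of the vehicle-treated control group.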

[1] = dose: 25.0 mg/kg/injection, schedule: Q01DX009 (ip), vehicle: saline with Tween-80
[2] = dose: 50.0 mg/kg/injection, schedule: Q01DX009 (ip), vehicle: Klucel (hydroxypropylcellulose) (HPC)
[3] = dose: 50.0 mg/kg/injection, schedule: Q01DX009 (ip), vehicle: saline with Tween-80
[4] = dose: 50.0 mg/kg/injection, schedule: Q01DX009 (ip), vehicle: saline
[5] = dose: 100.0 mg/kg/injection, schedule: Q01DX009 (ip), vehicle: saline with Tween-80
[6] = dose: 100.0 mg/kg/injection, schedule: Q01DX009 (ip), vehicle: saline
[7] = dose: 200.0 mg/kg/injection, schedule: Q01DX009 (ip), vehicle: saline
[8] = dose: 50.0 mg/kg/injection, schedule: Q01DX005 (ip), vehicle: Klucel (hydroxypropylcellulose) (HPC)
[9] = dose: 100.0 mg/kg/injection, schedule: Q01DX005 (ip), vehicle: Klucel (hydroxypropylcellulose) (HPC)
[10] = dose: 100.0 mg/kg/injection, schedule: Q04DX003 (ip), vehicle: saline with Tween-80
[11] = dose: 100.0 mg/kg/injection, schedule: Q01DX009 (ip), vehicle: Klucel (hydroxypropylcellulose) (HPC)
[12] = dose: 200.0 mg/kg/injection, schedule: Q01DX009 (ip), vehicle: Klucel (hydroxypropylcellulose) (HPC)
[13] = dose: 60.0 mg/kg/injection, schedule: Q01DX005 (ip), vehicle: saline with Tween-80
[14] = dose: 120.0 mg/kg/injection, schedule: Q01DX005 (ip), vehicle: saline with Tween-80
[15] = dose: 240.0 mg/kg/injection, schedule: Q01DX005 (ip), vehicle: saline with Tween-80

## CN(C)N=Nc1cccc(Cl)c1
dose: 6.25 mg/kg/injection, schedule: Q01DX009 (ip), vehicle: Klucel (hydroxypropylcellulose) (HPC)
  T/C: 95 % of control
dose: 12.5 mg/kg/injection, schedule: Q01DX009 (ip), vehicle: Klucel (hydroxypropylcellulose) (HPC)
  T/C: 105 % of control
dose: 12.5 mg/kg/injection, schedule: Q01DX009 (ip), vehicle: saline with Tween-80
  T/C: 100 % of control
dose: 25.0 mg/kg/injection, schedule: Q01DX009 (ip), vehicle: Klucel (hydroxypropylcellulose) (HPC)
  T/C: 98 % of control
dose: 25.0 mg/kg/injection, schedule: Q01DX009 (ip), vehicle: saline + alcohol
  T/C: 107 % of control
[1]
  T/C: 98 % of control
dose: 25.0 mg/kg/injection, schedule: Q01DX009 (ip), vehicle: saline
  T/C: 91 % of control
[2]
  T/C: 100 % of control
dose: 50.0 mg/kg/injection, schedule: Q01DX009 (ip), vehicle: saline + alcohol
  T/C: 120 % of control
[3]
  T/C: 107 % of control
[4]
  T/C: 99 % of control
[5]
  T/C: 105 % of control
[6]
  T/C: 97 % of control
[7]
  T/C: 100 % of control

## CN(C)C(=O)Sc1nnc(C(C)(C)C)o1
dose: 25.0 mg/kg/injection, schedule: Q01DX005 (ip), vehicle: Klucel (hydroxypropylcellulose) (HPC)
  T/C: 100 % of control
[8]
  T/C: 106 % of control
[9]
  T/C: 106 % of control

## O=[N+]([O-])c1cc2[nH]cnc2c([N+](=O)[O-])c1Nc1ccccc1
[10]
  T/C: 102 % of control
dose: 200.0 mg/kg/injection, schedule: Q04DX003 (ip), vehicle: saline with Tween-80
  T/C: 93 % of control
dose: 400.0 mg/kg/injection, schedule: Q04DX003 (ip), vehicle: saline with Tween-80
  T/C: 101 % of control

## COC(=O)C1=C(O)/C(=C\c2ccccc2)NC1=O
[8]
  T/C: 101 % of control
[9]
  T/C: 108 % of control
dose: 200.0 mg/kg/injection, schedule: Q01DX005 (ip), vehicle: Klucel (hydroxypropylcellulose) (HPC)
  T/C: 104 % of control

## CCOC(=O)c1c(Cl)c(Cl)c(C(=O)OCC)c(Cl)c1Cl
dose: 100.0 mg/kg/injection, schedule: Q04DX003 (ip), vehicle: saline sonified
  T/C: 100 % of control
dose: 200.0 mg/kg/injection, schedule: Q04DX003 (ip), vehicle: saline sonified
  T/C: 100 % of control
dose: 400.0 mg/kg/injection, schedule: Q04DX003 (ip), vehicle: saline sonified
  T/C: 100 % of control

## NC(=O)Cc1nn[nH]n1
dose: 100.0 mg/kg/injection, schedule: Q04DX003 (ip), vehicle: Klucel (hydroxypropylcellulose) (HPC)
  T/C: 106 % of control
dose: 200.0 mg/kg/injection, schedule: Q04DX003 (ip), vehicle: Klucel (hydroxypropylcellulose) (HPC)
  T/C: 103 % of control
dose: 400.0 mg/kg/injection, schedule: Q04DX003 (ip), vehicle: Klucel (hydroxypropylcellulose) (HPC)
  T/C: 107 % of control

## Sc1cc2c(c3ccccc13)Nc1ccccc1S2
[2]
  T/C: 92 % of control
[11]
  T/C: 97 % of control
[12]
  T/C: 97 % of control

## CC(=O)NC(C)C(C)(C)O (configuration not stated)
[4]
  T/C: 96 % of control
[6]
  T/C: 118 % of control
[7]
  T/C: 105 % of control
dose: 400.0 mg/kg/injection, schedule: Q01DX009 (ip), vehicle: saline
  T/C: 105 % of control

## COc1cc([N+](=O)[O-])ccc1N=Cc1cccs1
[4]
  T/C: 97 % of control
[6]
  T/C: 93 % of control
[7]
  T/C: 101 % of control

## CN=C(N)c1ccc(N=C(N)c2ccc(-c3ccc(C(N)=Nc4ccc(C(N)=NC)cc4)cc3)cc2)cc1
dose: 18.0 mg/kg/injection, schedule: Q01DX009 (ip), vehicle: saline
  T/C: 154 % of control
dose: 625.0 micrograms/kg/injection, schedule: Q01DX009 (ip), vehicle: saline with Tween-80
  T/C: 91 % of control
dose: 1250.0 micrograms/kg/injection, schedule: Q01DX009 (ip), vehicle: saline with Tween-80
  T/C: 108 % of control
dose: 2500.0 micrograms/kg/injection, schedule: Q01DX009 (ip), vehicle: saline with Tween-80
  T/C: 108 % of control

## CC(=O)Sc1ccccc1C(=O)NC1CCCCC1
[3]
  T/C: 114 % of control
[5]
  T/C: 117 % of control
dose: 200.0 mg/kg/injection, schedule: Q01DX009 (ip), vehicle: saline with Tween-80
  T/C: 114 % of control

## CCCOc1cc2c(cc1C(C)(C)c1ccccc1)OCO2
dose: 50.0 mg/kg/injection, schedule: Q01DX005 (ip), vehicle: saline with Tween-80
  T/C: 95 % of control
dose: 100.0 mg/kg/injection, schedule: Q01DX005 (ip), vehicle: saline with Tween-80
  T/C: 100 % of control

## FC(F)(F)c1ccc(NC(=S)SCc2ccc3c(c2)OCO3)cc1
dose: 50.0 mg/kg/injection, schedule: Q01DX009 (ip), vehicle: suspension in saline
  T/C: 98 % of control
dose: 100.0 mg/kg/injection, schedule: Q01DX009 (ip), vehicle: suspension in saline
  T/C: 93 % of control

## O=c1nnc(O)c2n(O)cccc1-2
[13]
  T/C: 100 % of control
[14]
  T/C: 105 % of control
[15]
  T/C: 97 % of control

## CCOC(=O)CCC(NC(=O)c1ccc(CBr)cc1)C(=O)OCC (configuration not stated)
dose: 12.5 mg/kg/injection, schedule: Q01DX009 (ip), vehicle: distilled water + Tween-80
  T/C: 102 % of control
dose: 25.0 mg/kg/injection, schedule: Q01DX009 (ip), vehicle: distilled water + Tween-80
  T/C: 111 % of control
dose: 50.0 mg/kg/injection, schedule: Q01DX009 (ip), vehicle: distilled water + Tween-80
  T/C: 107 % of control
dose: 100.0 mg/kg/injection, schedule: Q01DX009 (ip), vehicle: distilled water + Tween-80
  T/C: 100 % of control

## COc1ccc(C(=O)Cc2ccccc2C#N)cc1
dose: 100.0 mg/kg/injection, schedule: Q04DX002 (ip), vehicle: Klucel (hydroxypropylcellulose) (HPC)
  T/C: 100 % of control
dose: 200.0 mg/kg/injection, schedule: Q04DX002 (ip), vehicle: Klucel (hydroxypropylcellulose) (HPC)
  T/C: 99 % of control
dose: 400.0 mg/kg/injection, schedule: Q04DX002 (ip), vehicle: Klucel (hydroxypropylcellulose) (HPC)
  T/C: 99 % of control

## CCCCCCCCCCCCCCCC[N+]1(CC)CCCC1
dose: 0.09 mg/kg/injection, schedule: Q01DX009 (ip), vehicle: saline
  T/C: 100 % of control
dose: 0.19 mg/kg/injection, schedule: Q01DX009 (ip), vehicle: saline
  T/C: 98 % of control
dose: 0.39 mg/kg/injection, schedule: Q01DX009 (ip), vehicle: saline
  T/C: 112 % of control and 93 % of control

## CSC(SC)=C(C#N)C#N
dose: 25.0 mg/kg/injection, schedule: Q04DX003 (ip), vehicle: saline
  T/C: 104 % of control
dose: 50.0 mg/kg/injection, schedule: Q04DX003 (ip), vehicle: saline
  T/C: 105 % of control
dose: 100.0 mg/kg/injection, schedule: Q04DX003 (ip), vehicle: saline
  T/C: 108 % of control

## CC(=Nc1c(Cl)c(Cl)c2c(c1Cl)C(=O)c1cc(Cl)ccc1-2)NO
[13]
  T/C: 97 % of control
[14]
  T/C: 104 % of control
[15]
  T/C: 95 % of control

## Nc1nc2c(c(=O)[nH]1)NC(CCNc1ccc(C(=O)NC(CCC(=O)O)C(=O)O)cc1)CN2 (configuration not stated)
[1]
  T/C: 100 % of control
[3]
  T/C: 104 % of control and 118 % of control
dose: 100.0 mg/kg/injection, schedule: Q01DX009 (ip), vehicle: saline sonified
  T/C: 113 % of control
[5]
  T/C: 122 % of control

## COc1cc(/C=C/c2cc(OC)c(OC)c(OC)c2)oc(=O)c1
[2]
  T/C: 98 % of control
[11]
  T/C: 104 % of control
[12]
  T/C: 99 % of control

## CC1(C)N=C(N)N=C(N)N1c1ccc(CCc2ccc(S(=O)(=O)F)cc2)c(Cl)c1
dose: 25.0 mg/kg/injection, schedule: Q04DX003 (ip), vehicle: saline with Tween-80
  T/C: 118 % of control
dose: 33.0 mg/kg/injection, schedule: Q04DX003 (ip), vehicle: saline sonified
  T/C: 118 % of control
dose: 50.0 mg/kg/injection, schedule: Q04DX003 (ip), vehicle: saline sonified
  T/C: 118 % of control
[10]
  T/C: 113 % of control

## CC1(C)CC(=O)C=C(NCCCCCCCCNC2=CC(=O)CC(C)(C)C2)C1
[2]
  T/C: 95 % of control
[11]
  T/C: 106 % of control
[12]
  T/C: 100 % of control

## Cc1ncc2c(n1)-c1ccccc1OC2O (configuration not stated)
[4]
  T/C: 103 % of control
[6]
  T/C: 91 % of control
[7]
  T/C: 100 % of control

## COc1cccc2c1C(=O)c1c(OC)c(C=O)cc(OC)c1C2=O
dose: 50.0 mg/kg/injection, schedule: Q01DX009 (ip), vehicle: water
  T/C: 99 % of control
dose: 100.0 mg/kg/injection, schedule: Q01DX009 (ip), vehicle: water
  T/C: 100 % of control
dose: 200.0 mg/kg/injection, schedule: Q01DX009 (ip), vehicle: water
  T/C: 98 % of control

## Cc1cc(CSCCc2nc3ccccc3[nH]2)c(O)c(CSCCc2nc3ccccc3[nH]2)c1
[13]
  T/C: 107 % of control
[14]
  T/C: 93 % of control
[15]
  T/C: 90 % of control
